According to patent US9814727B2, “Piperazine phenothiazine derivatives for treating spasticity” (UNIVERSITE D'AIX-MARSEILLE, priority 2014, dated 2017):

Columns and labels:
[1] = test system: Hoffmann reflex (H-reflex); test: Assessment of spasticity following spinal cord injury (H reflex); format: in vivo, rat; settings: 10 μg/kg i.v.
Procedure: Thoracic spinal section in rats was used as a model of SCI. Adult female Wistar Rats (225/250 g Charles River) were anaesthetized intraperitoneally with 50 mg/kg ketamine (Imalgen®, Merial, Duluth, Ga., USA) and 0.25 mg/kg Medetomidine (Domitor®, Janssen Pharmaceutica, Beerse, Belgium). The antibiotic Amoxycyline (Duphamox LA®, Pfizer, 150 mg/kg) was injected subcutaneously before the surgery. The skin was cut longitudinally over T8-T10 vertebra and a local anesthetic (2% Procaine hydrochloride, Pharmy H, Saint-Germain-en-Laye, France) was injected intramuscularly before cuting the paravertebral muscles. A laminectomy was performed at vertebral segment T9. The spinal cord was transected with microscissors at the level of the T8 spinal segment. Finally, paravertebral muscles and skin were sutured and rats were treated with buprenorphine for analgesia (1 injection before awakening from anaesthesia and 4 more injections over the next 48 h period). […]
At day 29 post lesion, the H reflex in the rats under ketamine anesthesia (100 mg/kg, i.p.) were measured using a pair of stainless steel needle electrodes transcutaneously inserted into the vicinity of the tibial nerve stimulation. […]
The H reflex was measured three times at frequencies of 0.2 Hz 1 Hz, 2 Hz and 5 Hz to have their baseline values. […] The H reflex was measured each 20 minutes, five times at frequencies of 0.2 Hz 1 Hz, 2 Hz and 5 Hz

KCC2 = test: FluxOR fluorescence based thallium (Tl+) influx assay on KCC2-expressing HEK293 cells; format: cell-based; settings: HEK KCC2 compared to WT HEK cells, non-cytotoxic dose range
Procedure: Wild-type or KCC2-expressing Human Embryonic Kidney (HEK) 293 cells (provided by Prof. Eric Delpire Department of Anesthesiology, Vanderbilt University Medical Center, Nashville, Tenn.) were grown up to 80-90% confluence in DMEM/Ham's F-12 (1:1) (Life technologies, Carlsbad, Calif., USA) supplemented with 10% FBS (Life technologies), 50 units/mL penicillin, and 50 µg/mL streptomycin (Life technologies). KCC2-expressing clones were under puromycin selection (20 μg/ml, Life technologies).
The FluxOR™ potassium ion channel assay (Life Technologies Carlsbad, Calif., USA) was performed as outlined in the product information sheet and an earlier published study (Delpire et al., 2009, Proc. Natl. Acad. Sci. USA, 106, 5383-88) to assess KCC2 activity, and adapted to semi-automated high throughput screening. The experiment was performed in the presence of ouabain 200 μM and bumetanide 10 μM in all buffers to block the Na^+/K^+ pump and NKCC1 cotransporters, respectively. Briefly, cells in suspension were incubated in the loading buffer containing the dye at room temperature for 90 min (1/2000 dilution of FluxOR reagent) at the density of 100.000 cells/75 μl, then centrifugated and resuspended in Assay buffer at the same cell density. A number of 100.000 cells (75 μl) were manually handled in each well to the 96-wells black-walled, μclear-bottom plates (Greiner Bio-One, Monroe, N.C., USA) and 5 μl of chemical compounds 1-8 at different concentrations in PBS 1% DMSO (5, 30 and 50 μM) were added to the plates using the Biomek® NX Laboratory automation workstation (Beckman Coulter, Villepinte, France). After 15 minutes incubation, baseline fluorescent signal was measured with the Polarstar omega microplate reader (490 nm excitation and 520 nm emission, BMG Labtech). Then 20 μL per well of 5× thallium stimulus buffer (final concentrations: Tl^+: 2 mM, K^+: 10 mM) was injected and fluorescent signal was read 30 minutes later.
For each plate, 2 columns were dedicated to controls (cell density range from 0.25 to 1.10^5 cells; loading buffer as blank; untreated or treated with NEM (33 μM, for 15 min) wild-type and KCC2-expressing HEK293 cells).
Baseline fluorescent value was subtracted from the fluorescent value measured 30 min after stimulus buffer injection for each well, and this difference was normalized to the number of cells. […] Values converted to percentages such that the maximum of ratio is 100%.

lumbar motoneurons (MNs) = test: Intracellular recordings of lumbar motoneurons in the in vitro spinal cord preparation (EIPSP); format: cell-based, rat; settings: 10 μM
Source text: Spinal cords isolated from neonatal rats on post natal day 4 or 5 were dissected together with spinal roots. Briefly, after decapitation and evisceration, the spinal cord was exposed by dorsal laminectomy and acute removal of the dura in a cold artificial cerebrospinal fluid (ACSF; containing (in mM): 130 NaCl, 4 KCl, 3.75 CaCl2, 1.3 MgSO4, 0.58 NaH2PO4, 25 NaHCO3 and 10 glucose (all compounds were from Sigma); oxygenated with 95% O2/5% CO2, pH=7.4). The cord, from sacral segments up to T8, was then removed from the vertebral column together with peripheral roots. The preparation was then transferred to the recording chamber where it was pinned down, ventral side up, in sylgard (Dow-Corning; USA)-covered recording chamber, and continuously perfused with the ACSF solution. After removing the pia, we recorded lumbar motoneurons (MNs) intracellularly using glass microelectrodes filled with 2 M K-acetate (70 to 100-MΩ resistance). We recorded intracellular potentials in the discontinuous current-clamp (DCC) mode (Axoclamp 2B amplifier; Digidata 1200 interface; pClamp9 software; Axon Instruments, Sunnyvale, Calif., USA). We used glass suction electrode to stimulate the ipsilateral ventral funiculus 2 to 3 segments rostral to the recorded one. Such stimulations induced GABAA- and Gly-mediated Inhibitory Postsynaptic Potentials (IPSPs) in the presence of DL-2-amino-5-phosphonovaleric acid (DL-APV, 50 μM) and 6-cyano-7-nitroquinoxaline-2,3-dione (CNQX, 10 μM) (Bos et al., 2013; Boulenguez et al., 2010; Jean-Xavier et al., 2006). We recorded IPSPs at various holding potentials (500-ms-long current pulses) and collected at least 20 values for each MN. We measured and plotted amplitudes of IPSPs against holding potentials and obtained EIPSP from the regression line.
In the in vitro spinal cord preparation, isolated from neonatal rat, a way to investigate KCC2 function is provided by recording motoneurons (MNs) intracellularly and measuring the chloride equilibrium potential that is given by the reversal potential of inhibitory synaptic potentials (EIPSP). The more hyperpolarized the value of EIPSP, the lower the intracellular concentration of chloride ions and, as a result, the stronger the KCC2 function. The inventors have examined the effect of 10 μM Prochlorperazine (2) on EIPSP of lumbar MNs in P4-6 rats (FIG. 3). It hyperpolarized EIPSP within 5-10 min and measurements were done 20-25 min after the onset of Prochlorperazine (2) application.

CN1CCN(CCCN2c3ccccc3Sc3ccc(Cl)cc32)CC1 [compound 2, 2-chloro-10-[3-(4-methyl-1-piperazinyl)propyl]-10H-phenothiazine]
decrease of the H reflex ([1]; 80 min after injection, 1, 2 and 5 Hz, adult rats after SCI): ~30% | effect on spasticity after spinal cord injury ([1]; 80 minutes, adult rats 4 weeks after SCI): reduces spasticity | specific activation of KCC2 across a dose range (KCC2): activate specifically KCC2 in a dose dependant manner | change of driving force (EIPSP-Vrest) (lumbar motoneurons (MNs); 20-25 min, n=6): −3.5 mV | effect on resting membrane potential (Vrest) (lumbar motoneurons (MNs); 20-25 min, n=6): no significant impact | hyperpolarizing shift of EIPSP compared to control (lumbar motoneurons (MNs); 20-25 min after onset of application, P4-6 rats, n=6): −3.3 mV | time to hyperpolarization of EIPSP (lumbar motoneurons (MNs); P4-6 rats): 5 to 10 min
